Results on 54 compounds are retold here after patent US20100022531A1, “NOVEL COMPOUNDS AS P2X7 MODULATORS AND USES THEREOF” (RENOVIS, INC., priority 2005, published 2010).

One assay deals with T1, P2X7 receptor (Homo sapiens, UniProt Q99572).
T1 construct: host or cells: THP-1 cells differentiated with LPS and IFN-γ
T1 sequence (Q99572 1-595): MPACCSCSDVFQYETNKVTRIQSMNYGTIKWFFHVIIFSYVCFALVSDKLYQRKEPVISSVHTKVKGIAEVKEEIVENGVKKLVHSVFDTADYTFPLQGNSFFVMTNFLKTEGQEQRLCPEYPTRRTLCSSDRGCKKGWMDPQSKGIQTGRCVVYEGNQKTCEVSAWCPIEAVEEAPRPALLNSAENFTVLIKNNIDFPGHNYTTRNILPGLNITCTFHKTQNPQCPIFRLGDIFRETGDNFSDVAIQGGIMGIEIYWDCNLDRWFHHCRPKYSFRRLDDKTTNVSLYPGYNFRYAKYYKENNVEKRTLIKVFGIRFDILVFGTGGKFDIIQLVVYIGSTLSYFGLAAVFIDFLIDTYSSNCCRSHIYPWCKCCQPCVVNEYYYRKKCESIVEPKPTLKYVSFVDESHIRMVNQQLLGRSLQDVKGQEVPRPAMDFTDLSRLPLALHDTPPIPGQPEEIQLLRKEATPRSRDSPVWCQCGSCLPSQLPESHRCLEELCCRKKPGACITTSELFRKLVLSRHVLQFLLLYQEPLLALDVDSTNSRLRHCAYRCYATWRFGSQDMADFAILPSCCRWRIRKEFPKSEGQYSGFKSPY
In words: Alternate method for IL-1β release assay (differentiated THP-1 cells, BzATP-stimulated, ELISA). The assay is classed as cell-based. The settings on record: P2X7; 0.1 μM compound (plus symbols); read-out: IL-1β % inhib @ 0.1 μM. Here is the method:
Alternate Method for IL-1β Release Assay
THP-1 cells (ATCC Cat #285-IF-100) are plated in 96 well plates at a concentration of 200,000 cells per well and allowed to differentiate in RPMI-1640 media (ATCC Cat #30-2001) containing 10% FBS, 100 IU/mL penicillin, 100 ug/mL streptomycin, 100 ng/mL LPS and 100 ng/mL IFN-γ for 16 hours. Following differentiation, the cells are treated for an additional 2 hours in RPMI-1640 media containing 100 IU/mL penicillin, 100 ug/mL streptomycin and fresh LPS at 100 ng/mL. The cells are then pretreated for 30 minutes with the compound of interest at the appropriate concentration in RPMI media containing 100 IU/mL penicillin, 100 ug/mL streptomycin. Following the pretreatment 2′,3′-O-(4-benzoylbenzoyl)-adenosine 5′-triphosphate (Sigma Aldrich Cat# B6396) is added to a final concentration of 250 uM and the cells incubated for an additional 45 minutes. 30 uL of cell supernatant is then collected and IL-1β levels determined via ELISA (R&D systems Cat. # HSLB50) according to manufacturers recommendations using the Tecan Safire plate reader. Background adjusted IL-1β levels of drug treated and non-treated cells are used to calculate the percent inhibition.
For orientation: An ELISA detects its analyte on a solid surface through an enzyme-linked reagent.
Take `O=C(c1cccc(F)c1)N1CCc2c(ncnc2NCC23CC4CC(CC(C4)C2)C3)C1` [Compound 83]: the inhibition at 0.1 µM is > 75%.

Turning to `N#Cc1cccc(C(=O)N2CCc3c(ncnc3NCC34CC5CC(CC(C5)C3)C4)C2)c1` [Compound 97], the inhibition at 0.1 µM is > 75%.

On to `O=C(COc1ccccc1)N1CCc2c(ncnc2NCC23CC4CC(CC(C4)C2)C3)C1` [Compound 104], for which the inhibition at 0.1 µM was 50 to 75%. `COc1cccc(C(=O)N2CCc3c(ncnc3NCC34CC5CC(CC(C5)C3)C4)C2)c1` [Compound 105]: the inhibition at 0.1 µM is 25 to 50%. For `O=C(c1ccc(F)cc1)N1CCc2c(ncnc2NCC23CC4CC(CC(C4)C2)C3)C1` [Compound 106], the inhibition at 0.1 µM was > 75%. For `O=C(C1CC1)N1CCc2c(ncnc2NCC23CC4CC(CC(C4)C2)C3)C1` [Compound 115, 4-[(Adamantan-1-ylmethyl)-amino]-5,8-dihydro-6H-pyrido[3,4-d]pyrimidin-7-yl-cyclopropyl-methanone], the inhibition at 0.1 µM is > 75%. In the case of `O=C(c1ccccc1F)N1CCc2c(ncnc2NCC23CC4CC(CC(C4)C2)C3)C1` [Compound 135], the inhibition at 0.1 µM lay in the range of 50 to 75%. For the compound `O=C(c1ccno1)N1CCc2c(ncnc2NCC23CC4CC(CC(C4)C2)C3)C1` [Compound 149], the inhibition at 0.1 µM is > 75%.

The assay is the same for the next values; noted with them: P2X7; 0.3 μM compound (asterisk symbols); read-out: IL-1β % inhib @ 0.3 μM.
As to `O=C(c1ccc(OC(F)(F)F)cc1)N1CCc2c(ncnc2NCC23CC4CC(CC(C4)C2)C3)C1` [Compound 84], the inhibition at 0.3 µM lay within 0 to 25%.

Regarding `CCc1ccc(C(=O)N2CCc3c(ncnc3NCC34CC5CC(CC(C5)C3)C4)C2)cc1` [Compound 85], the inhibition at 0.3 µM was in the range of 50 to 75%. For the compound `Cc1cccc(C(=O)N2CCc3c(ncnc3NCC34CC5CC(CC(C5)C3)C4)C2)c1` [Compound 86], the inhibition at 0.3 µM is > 75%. On to `O=C(c1ccc(F)c(F)c1)N1CCc2c(ncnc2NCC23CC4CC(CC(C4)C2)C3)C1` [Compound 88], for which the inhibition at 0.3 µM was > 75%.

With `O=C(c1cccc(C(F)(F)F)c1)N1CCc2c(ncnc2NCC23CC4CC(CC(C4)C2)C3)C1` [Compound 89], the inhibition at 0.3 µM was in the range of 25 to 50%. Regarding `COc1ccc(C(=O)N2CCc3c(ncnc3NCC34CC5CC(CC(C5)C3)C4)C2)cc1` [Compound 90], the inhibition at 0.3 µM is 0 to 25%. On the same count and under the same terms, to `O=C(C(c1ccccc1)c1ccccc1)N1CCc2c(ncnc2NCC23CC4CC(CC(C4)C2)C3)C1` [Compound 92] belongs 0 to 25%. On to `O=C(Cc1ccc(F)cc1)N1CCc2c(ncnc2NCC23CC4CC(CC(C4)C2)C3)C1` [Compound 96], for which the inhibition at 0.3 µM lay within 50 to 75%. As for `O=C(c1ccc(C(F)(F)F)cc1)N1CCc2c(ncnc2NCC23CC4CC(CC(C4)C2)C3)C1` [Compound 98], the inhibition at 0.3 µM lay in the range of 25 to 50%. For the compound `O=C(c1ccc(Cl)c(Cl)c1)N1CCc2c(ncnc2NCC23CC4CC(CC(C4)C2)C3)C1` [Compound 100], the inhibition at 0.3 µM lay within 25 to 50%.

As to `COc1cc(OC)cc(C(=O)N2CCc3c(ncnc3NCC34CC5CC(CC(C5)C3)C4)C2)c1` [Compound 101], the inhibition at 0.3 µM was 0 to 25%.

With `O=C(c1c(F)cccc1F)N1CCc2c(ncnc2NCC23CC4CC(CC(C4)C2)C3)C1` [Compound 102], the inhibition at 0.3 µM was 50 to 75%.

For the compound `O=C(CCc1ccccc1)N1CCc2c(ncnc2NCC23CC4CC(CC(C4)C2)C3)C1` [Compound 103], the inhibition at 0.3 µM is > 75%. Take `CC(C)(C)C(=O)N1CCc2c(ncnc2NCC23CC4CC(CC(C4)C2)C3)C1` [Compound 107]: the inhibition at 0.3 µM lay in the range of 50 to 75%. As for `O=C(c1cccc(Cl)c1)N1CCc2c(ncnc2NCC23CC4CC(CC(C4)C2)C3)C1` [Compound 108], the inhibition at 0.3 µM is > 75%. `O=C(COCc1ccccc1)N1CCc2c(ncnc2NCC23CC4CC(CC(C4)C2)C3)C1` [Compound 111]: the inhibition at 0.3 µM is > 75%.

For the compound `O=C(c1ccc(Cl)cc1Cl)N1CCc2c(ncnc2NCC23CC4CC(CC(C4)C2)C3)C1` [Compound 113], the inhibition at 0.3 µM is > 75%. Regarding `COc1cccc(CC(=O)N2CCc3c(ncnc3NCC34CC5CC(CC(C5)C3)C4)C2)c1` [Compound 116], the inhibition at 0.3 µM was 25 to 50%.

For the compound `O=C(COc1ccc(Cl)cc1)N1CCc2c(ncnc2NCC23CC4CC(CC(C4)C2)C3)C1` [Compound 119], the inhibition at 0.3 µM lay within 25 to 50%.

For the compound `O=C(Cc1ccc(Cl)cc1)N1CCc2c(ncnc2NCC23CC4CC(CC(C4)C2)C3)C1` [Compound 120], the inhibition at 0.3 µM is 25 to 50%. For the compound `O=C(c1ccc(C(F)(F)F)cc1F)N1CCc2c(ncnc2NCC23CC4CC(CC(C4)C2)C3)C1` [Compound 121], the inhibition at 0.3 µM fell in the range of 25 to 50%. In the case of `O=C(c1cc(F)cc(C(F)(F)F)c1)N1CCc2c(ncnc2NCC23CC4CC(CC(C4)C2)C3)C1` [Compound 122], the inhibition at 0.3 µM lay within 0 to 25%. For `O=C(c1cc(C(F)(F)F)ccc1Cl)N1CCc2c(ncnc2NCC23CC4CC(CC(C4)C2)C3)C1` [Compound 126], the inhibition at 0.3 µM lay in the range of 0 to 25%. With `O=C(c1c(F)cccc1Cl)N1CCc2c(ncnc2NCC23CC4CC(CC(C4)C2)C3)C1` [Compound 127], the inhibition at 0.3 µM was > 75%. Turning to `Cc1nn(-c2ccccc2)nc1C(=O)N1CCc2c(ncnc2NCC23CC4CC(CC(C4)C2)C3)C1` [Compound 128], the inhibition at 0.3 µM was > 75%. As to `O=C(c1cccnc1Oc1ccccc1)N1CCc2c(ncnc2NCC23CC4CC(CC(C4)C2)C3)C1` [Compound 129], the inhibition at 0.3 µM is > 75%. Consider `O=C(c1ccc(F)cc1F)N1CCc2c(ncnc2NCC23CC4CC(CC(C4)C2)C3)C1` [Compound 132], for which the inhibition at 0.3 µM was in the range of 50 to 75%. Regarding `Cc1ccccc1C(=O)N1CCc2c(ncnc2NCC23CC4CC(CC(C4)C2)C3)C1` [Compound 133], the inhibition at 0.3 µM was in the range of 25 to 50%.

Take `O=C(c1cc(F)ccc1F)N1CCc2c(ncnc2NCC23CC4CC(CC(C4)C2)C3)C1` [Compound 134]: the inhibition at 0.3 µM was > 75%. Turning to `O=C(c1ccc(Cl)nc1)N1CCc2c(ncnc2NCC23CC4CC(CC(C4)C2)C3)C1` [Compound 136], the inhibition at 0.3 µM lay in the range of 0 to 25%.

Regarding `O=C(c1cccc(Cl)c1Cl)N1CCc2c(ncnc2NCC23CC4CC(CC(C4)C2)C3)C1` [Compound 137], the inhibition at 0.3 µM is > 75%. The same measure, in the same setting: the value for `Cc1cc(C(=O)N2CCc3c(ncnc3NCC34CC5CC(CC(C5)C3)C4)C2)nn1C` [Compound 139] was 0 to 25%; that for `O=C(c1ccc2ccccc2c1)N1CCc2c(ncnc2NCC23CC4CC(CC(C4)C2)C3)C1` [Compound 143] was 50 to 75%. `Cc1ccc(C(=O)N2CCc3c(ncnc3NCC34CC5CC(CC(C5)C3)C4)C2)cc1` [Compound 144]: the inhibition at 0.3 µM fell in the range of 50 to 75%. With `Cc1cc(C(=O)N2CCc3c(ncnc3NCC34CC5CC(CC(C5)C3)C4)C2)c(C)o1` [Compound 146], the inhibition at 0.3 µM is > 75%. Same read-out and setting: to `O=C(c1ccccc1Cl)N1CCc2c(ncnc2NCC23CC4CC(CC(C4)C2)C3)C1` [Compound 147] belongs 0 to 25%; to `CC(=O)N1CCC(C(=O)N2CCc3c(ncnc3NCC34CC5CC(CC(C5)C3)C4)C2)CC1` [Compound 148], 0 to 25%; to `Cc1cc(C(=O)N2CCc3c(ncnc3NCC34CC5CC(CC(C5)C3)C4)C2)n(C(C)(C)C)n1` [Compound 151], 25 to 50%. Turning to `CC(C)(C)c1ccc(C(=O)N2CCc3c(ncnc3NCC34CC5CC(CC(C5)C3)C4)C2)cc1` [Compound 152], the inhibition at 0.3 µM was > 75%. On the same count and under the same terms, the value for `O=C(Cc1ccccc1Br)N1CCc2c(ncnc2NCC23CC4CC(CC(C4)C2)C3)C1` [Compound 153] was 0 to 25%; that for `O=C(c1ccc2ccccc2n1)N1CCc2c(ncnc2NCC23CC4CC(CC(C4)C2)C3)C1` [Compound 154] was 25 to 50%. Consider `COc1ccc(C(=O)N2CCc3c(ncnc3NCC34CC5CC(CC(C5)C3)C4)C2)cc1F` [Compound 158], for which the inhibition at 0.3 µM is > 75%. Still for that read-out and setting: the value for `COc1ccc(C(=O)N2CCc3c(ncnc3NCC34CC5CC(CC(C5)C3)C4)C2)cc1OC` [Compound 159] was > 75%; that for `O=C(C1COc2ccccc2C1)N1CCc2c(ncnc2NCC23CC4CC(CC(C4)C2)C3)C1` (stereo not drawn) [Compound 160] was > 75%.

For `CC(CCN1CCc2c(ncnc2NCC23CC4CC(CC(C4)C2)C3)C1)CC(C)(C)C` (stereo not drawn) [Compound 163], the inhibition at 0.3 µM is > 75%. Still for that read-out and setting: to `c1ccc(C(CN2CCc3c(ncnc3NCC34CC5CC(CC(C5)C3)C4)C2)c2ccccc2)cc1` [Compound 164] belongs > 75%.
